How the values were obtained:
Type in all cases: in vivo, rat
[1] = tested on: male Sprague-Dawley rats; experiment: EEG/EMG/Tcore/LMA telemetry sleep study 1 (SB-334867 vs ZOL); details: 7.5 mg/kg ip
Description: (§1) All rodent electroencephalograph (EEG) studies were performed at SRI International. Three groups of eight male Sprague-Dawley rats (300±25 g; Charles River, Wilmington, MA) were implanted with chronic recording devices (F40-EET, Data Sciences Inc., St Paul, MN) for continuous recordings of EEG, electromyograph (EMG), core body temperature (Tcore), and LMA via telemetry as previously described. Data recording and scoring were performed as previously reported (see also Supplemental Material and Methods). The EEG and EMG data were scored in 10 sec epochs for waking (W), rapid eye movement sleep (REM), and non-REM sleep (NR). Tcore and LMA (counts per minute) were analyzed as hourly means. Data from the EEG studies are reported in hourly means such that the hourly time ZT1 refers to the hour between time points ZT0 and ZT1.
(§2) For each of the three separate studies, a repeated measures counter-balanced design was employed in which each rat received five separate dosings. […] All dosings were administered ip in a volume of 2 ml/kg. A minimum of 3 d elapsed between doses. Dosing occurred during the middle of the rats’ normal active period at the start of ZT19 and was typically completed within 10 min. Animals were continuously recorded for 6 h prior to dosing and for 18 h following dosing.

[2] = tested on: male Sprague-Dawley rats; experiment: EEG/EMG/Tcore/LMA telemetry sleep study 3 (almorexant vs ZOL); details: ZOL 10 mg/kg ip
Description: as §1, §2

[3] = tested on: male Sprague-Dawley rats; experiment: EEG/EMG/Tcore/LMA telemetry sleep study 2 (EMPA vs ZOL); details: ZOL 10 mg/kg ip
Description: as §1, §2

[4] = tested on: male Sprague-Dawley rats; experiment: Rodent EEG studies, all three studies together
Description: as §1, §2

## Cc1ccc(-c2nc3ccc(C)cn3c2CC(=O)N(C)C)cc1 [ZOL, N,N,6-Trimehtyl-2-(methylphenyl)-imidazol[1,2-a]pyridine-3-acetamide]
[1]; 6 h Average
  NR bout duration: 1.63 ± 0.07
  REM bout duration: 0.99 ± 0.09
  W bout duration: 4.50 ± 0.41
[1]; 6 h Total
  Number of NR bouts: 62.88 ± 3.98
  Number of REM bouts: 13.13 ± 1.32
  Number of W bouts: 56.0 ± 4.43
[1]; ZT19
  NR bout duration: 3.33 ± 0.78
  Number of NR bouts: 7.50 ± 1.43
  Number of REM bouts: 1.38 ± 0.46
  Number of W bouts: 6.75 ± 1.31
  REM bout duration: 0.77 ± 0.20
[1]; ZT20
  NR bout duration: 2.95 ± 0.43
  Number of NR bouts: 7.75 ± 1.29
  Number of REM bouts: 0.88 ± 0.48
  Number of W bouts: 6.00 ± 0.82
  REM bout duration: 0.76 ± 0.19
[1]; ZT21
  NR bout duration: 1.87 ± 0.20
  Number of NR bouts: 17.25 ± 2.00
  Number of REM bouts: 4.50 ± 0.78
  Number of W bouts: 12.00 ± 1.95
  REM bout duration: 1.28 ± 0.11
  W bout duration: 2.44 ± 0.75
[1]; ZT22
  NR bout duration: 1.01 ± 0.10
  Number of NR bouts: 14.88 ± 1.88
  Number of REM bouts: 1.25 ± 0.75
  Number of W bouts: 14.75 ± 2.49
  W bout duration: 3.30 ± 0.66
[1]; ZT23
  NR bout duration: 0.82 ± 0.10
  Number of NR bouts: 7.25 ± 1.06
  Number of REM bouts: 1.00 ± 0.38
  Number of W bouts: 7.75 ± 1.19
  REM bout duration: 0.72 ± 0.26
[1]; ZT24
  NR bout duration: 0.84 ± 0.09
  Number of NR bouts: 8.25 ± 1.75
  Number of W bouts: 7.88 ± 1.63
  REM bout duration: 0.86 ± 0.24
  W bout duration: 12.51 ± 0.82
[2]; 6 h Average
  NR bout duration: 1.99 ± 0.16
  REM bout duration: 0.97 ± 0.12
  W bout duration: 2.88 ± 0.16
[2]; 6 h Total
  Number of NR bouts: 77.63 ± 3.56
  Number of REM bouts: 7.38 ± 1.68
  Number of W bouts: 68.00 ± 4.23
[2]; ZT19
  NR bout duration: 3.53 ± 0.71
  Number of REM bouts: 0.50 ± 0.27
  Number of W bouts: 8.75 ± 1.56
  REM bout duration: 0.33 ± 0.10
  W bout duration: 4.15 ± 0.82
[2]; ZT20
  NR bout duration: 2.90 ± 0.19
  Number of NR bouts: 11.63 ± 1.36
  Number of REM bouts: 0.50 ± 0.38
  Number of W bouts: 10.00 ± 0.71
  REM bout duration: 2.25 ± 0.25
  W bout duration: 2.31 ± 0.33
[2]; ZT21
  NR bout duration: 2.84 ± 0.34
  Number of NR bouts: 11.88 ± 1.60
  Number of W bouts: 10.25 ± 1.56
  W bout duration: 2.69 ± 0.42
[2]; ZT22
  NR bout duration: 2.27 ± 0.44
  Number of NR bouts: 13.50 ± 1.88
  Number of REM bouts: 2.50 ± 0.82
  Number of W bouts: 10.50 ± 1.21
  W bout duration: 3.13 ± 0.59
[2]; ZT23
  NR bout duration: 1.29 ± 0.20
  Number of NR bouts: 17.25 ± 3.27
  Number of REM bouts: 1.75 ± 0.41
  Number of W bouts: 15.13 ± 3.17
  W bout duration: 3.85 ± 1.44
[2]; ZT24
  NR bout duration: 1.03 ± 0.12
  Number of NR bouts: 13.13 ± 2.37
  Number of REM bouts: 1.00 ± 0.42
  Number of W bouts: 12.63 ± 2.40
  REM bout duration: 0.66 ± 0.29
  W bout duration: 4.15 ± 0.83
[3]; 6 h Average
  NR bout duration: 1.80 ± 0.13
  REM bout duration: 0.88 ± 0.07
  W bout duration: 3.94 ± 0.29
[3]; 6 h Total
  Number of NR bouts: 73.70 ± 4.34
  Number of REM bouts: 12.10 ± 1.30
  Number of W bouts: 55.80 ± 3.84
[3]; ZT19
  NR bout duration: 3.89± 0.68
  Number of NR bouts: 8.90 ± 1.06
  Number of REM bouts: 0.60± 0.31
  Number of W bouts: 8.10± 0.97
  REM bout duration: 0.65± 0.16
  W bout duration: 3.64± 0.51
[3]; ZT20
  NR bout duration: 3.13± 0.44
  Number of NR bouts: 11.60± 1.38
  Number of REM bouts: 1.10± 0.48
  Number of W bouts: 8.60± 1.59
  REM bout duration: 0.96± 0.27
  W bout duration: 3.23± .037
[3]; ZT21
  NR bout duration: 1.81± 0.27
  Number of NR bouts: 16.40± 2.10
  Number of REM bouts: 3.30± 0.75
  Number of W bouts: 11.00± 1.74
  REM bout duration: 0.66± 0.09
  W bout duration: 3.10± .059
[3]; ZT22
  NR bout duration: 1.34± 0.17
  Number of NR bouts: 16.10± 1.11
  Number of REM bouts: 4.80± 0.55
  Number of W bouts: 12.10± 0.85
  REM bout duration: 0.97± 0.10
  W bout duration: 2.59± 0.31
[3]; ZT23
  NR bout duration: 0.98± 0.11
  Number of NR bouts: 13.00± 1.64
  Number of REM bouts: 1.90± 0.35
  Number of W bouts: 8.90± 1.15
  W bout duration: 5.59 ±0.93
[3]; ZT24
  NR bout duration: 0.92± 0.20
  Number of NR bouts: 7.50± 1.58
  Number of REM bouts: 0.40± 0.22
  Number of W bouts: 6.20± 1.31
  REM bout duration: 0.58± 0.14
  W bout duration: 12.90± 3.56
[4]; ZOL 7.5 or 10 mg/kg ip, all three experiments
  NR latency (in words): decrease in NR latency
[4]; all three experiments
  cumulative NR (in words): increased cumulative NR
  cumulative REM (in words): decreased cumulative REM
[4]; all three studies, followed by rebound increase in the light period
  Tcore (in words): largest declines in Tcore
[4]; compared to vehicle control
  EEG delta power during NR (in words): significant effects on EEG delta power during NR
